# In patent US7759496B2, “Imidazole derivatives having affinity for alpha 2 receptors activity” (Orion Corporation, priority 2002, dated 2010):
# Where two headings read alike, the source gives them in different places.
# Tests used:
# normotensive rabbits = test: IOP study in rabbits; assay type: in vivo, rabbit; conditions: for Intraocular pressure (IOP) change: mean ± SE, n = 5-6
# Protocol: The IOP lowering effect of the prodrug was also compared to the effect of MPV-2426.
# To perform the IOP test, a rabbit was placed in a plastic restraining box located in a quiet room. A single drop (25 μl) of the test solution was instilled unilaterally into its left eye on the upper corneoscleral limbus. During installation, the upper eyelid was pulled slightly away from the globe. IOP was measured using a BioRad (Cambridge, Mass.) Digilab Modular One Pneumatonometer. Before each measurement one or two drops of oxybuprocaine (0.06%) were applied to the cornea before tonometry to eliminate discomfort. The upper and lower eyelids were then gently retracted, and the applanation sensor was brought into contact with the center of the cornea. For each
# determination at least two readings were taken from each treated (ipsilateral) and untreated (contralateral) eye, and the mean of these readings was used. IOP of the rabbits was measured at 2, 1, and 0 h before and at 0.5, 1, 2, 3, 4 and 5 h after eyedrop administration. IOP at the time of eyedrop administration (0 h) was used as a baseline value. All studies were set up using a masked and randomized crossover design. At least 72 h washout time was allowed for each rabbit between each dosing. Results
# [1] = Chemical stability in phosphate buffer at 37° C.; assay type: physicochemical
# Protocol: An appropriate amount of the test compound (initial concentrations were 0.1-0.4 mM) was dissolved in pre-heated phosphate buffer (0.16 M, μ=0.5, pH 7.4 or pH 5.0). The solution was placed in a thermostated water bath at 37° C. and aliquots were taken at suitable intervals and analyzed by HPLC to determine the degradation rate of the compound. The pseudo-first-order half-life (t1/2) was calculated from the linear slopes of semi-logarithmic plots of remaining compound over time.
# serum esterases = test: Enzymatic hydrolysis in 80% human serum; assay type: in vitro ADME; conditions: pH 7.4, 37° C., read-out: t1/2 (min) 80% human serum (pH 7.4)
# Protocol: To exert the pharmacological effect in the body, a prodrug should be enzymatically degraded to the parent drug. Therefore, the susceptibility of the compounds to serum esterases was evaluated.
# An appropriate amount of the test compound was dissolved in one volume (e.g. 1 ml) of phosphate buffer (0.16 M, μ=0.5, pH 7.4) at 37° C. Four volumes (e.g. 4 ml) of pre-heated human serum were added and the solutions were mixed in a water bath at 37° C. (initial concentrations were 0.2-0.5 mM). At suitable intervals, 300 μl aliquots were withdrawn and deproteinated with 600 μl of acetonitrile. After mixing and centrifugation, 600 μl of the supernatant was evaporated to dryness under a stream of air at 40° C. The residue was re-dissolved in 300 μl of the mobile phase and analyzed by HPLC. The pseudo-first-order half-life (t1/2) was calculated from the linear slopes of semi-logarithmic plots of remaining compound over time. Also the formation of the parent drug was determined.
# [2] = phosphate buffer pH 5.0, 37° C., read-out: t1/2 (d) phosphate buffer pH 5.0 (converted)
# [3] = phosphate buffer pH 7.4, 37° C., read-out: t1/2 (d) phosphate buffer pH 7.4 (converted)
# [4] = topical unilateral administration
smiles,measurement,setting,value
"Cl.Oc1ccc2c(c1)C(Cc1c[nH]cn1)CC2 (stereo not drawn) [MPV-2426, 4-(6-hydroxyindan-1-ylmethyl)-1H-imidazol-1-ium chloride, reference compound]",Intraocular pressure (IOP) change,"normotensive rabbits; treated eye, 2.5 μg, 0 h",0.0 ± 0.0 mmHg
same,Intraocular pressure (IOP) change,"normotensive rabbits; treated eye, 2.5 μg, 0.5 h",0.1 ± 1.0 mmHg
same,Intraocular pressure (IOP) change,"normotensive rabbits; treated eye, 2.5 μg, 1 h",−2.6 ± 1.1 mmHg
same,Intraocular pressure (IOP) change,"normotensive rabbits; treated eye, 2.5 μg, 2 h",−3.0 ± 0.7 mmHg
same,Intraocular pressure (IOP) change,"normotensive rabbits; treated eye, 2.5 μg, 3 h",−2.4 ± 0.5 mmHg
same,Intraocular pressure (IOP) change,"normotensive rabbits; treated eye, 2.5 μg, 4 h",−0.4 ± 1.2 mmHg
same,Intraocular pressure (IOP) change,"normotensive rabbits; treated eye, 2.5 μg, 5 h",−0.1 ± 0.8 mmHg
same,Intraocular pressure (IOP) change,"normotensive rabbits; untreated eye, 2.5 μg, 0 h",0.0 ± 0.0 mmHg
same,Intraocular pressure (IOP) change,"normotensive rabbits; untreated eye, 2.5 μg, 0.5 h",0.3 ± 1.0 mmHg
same,Intraocular pressure (IOP) change,"normotensive rabbits; untreated eye, 2.5 μg, 1 h",−1.3 ± 0.7 mmHg
same,Intraocular pressure (IOP) change,"normotensive rabbits; untreated eye, 2.5 μg, 2 h",−1.6 ± 0.9 mmHg
same,Intraocular pressure (IOP) change,"normotensive rabbits; untreated eye, 2.5 μg, 3 h",−1.7 ± 0.6 mmHg
same,Intraocular pressure (IOP) change,"normotensive rabbits; untreated eye, 2.5 μg, 4 h",0.4 ± 1.1 mmHg
same,Intraocular pressure (IOP) change,"normotensive rabbits; untreated eye, 2.5 μg, 5 h",0.4 ± 1.1 mmHg
"CC(=O)Oc1ccc2c(c1)C(Cc1c[nH]cn1)CC2.Cl (stereo not drawn) [example 1, 4-(6-Acetoxyindan-1-ylmethyl)-1H-imidazol-1-ium chloride]",half-life,[1]; [2],23 days
same,half-life,[1]; [3],1.1 days
same,half-life,serum esterases,0.18 min
"CCCC(=O)Oc1ccc2c(c1)C(Cc1c[nH]cn1)CC2.Cl (stereo not drawn) [example 2, 4-(6-Butyryloxyindan-1-ylmethyl)-1H-imidazol-1-ium chloride]",half-life,[1]; [2],49 days
same,half-life,[1]; [3],2.5 days
same,half-life,serum esterases,0.2 min
"CC(C)(C)C(=O)Oc1ccc2c(c1)C(Cc1c[nH]cn1)CC2.Cl (stereo not drawn) [example 3, 4-[6-(2,2-Dimethylpropanoyloxy)indan-1-ylmethyl]-1H-imidazol-1-ium chloride]",half-life,[1]; [2],310 days
same,half-life,[1]; [3],31 days
same,IOP lowering potency compared to an equimolar dose of MPV-2426,normotensive rabbits; [4],increased IOP lowering potency
same,duration of action compared to MPV-2426,normotensive rabbits; [4],prolonged duration of action
same,duration of the IOP lowering effect,"normotensive rabbits; topical unilateral administration, treated eye",lasted from 1 h through the duration of the 5 h experiment
same,Intraocular pressure (IOP) change,"normotensive rabbits; treated eye, 0.1 μg, 0 h",0.0 ± 0.0 mmHg
same,Intraocular pressure (IOP) change,"normotensive rabbits; treated eye, 0.1 μg, 0.5 h",1.7 ± 0.9 mmHg
same,Intraocular pressure (IOP) change,"normotensive rabbits; treated eye, 0.1 μg, 1 h",0.2 ± 1.3 mmHg
same,Intraocular pressure (IOP) change,"normotensive rabbits; treated eye, 0.1 μg, 2 h",0.8 ± 1.2 mmHg
same,Intraocular pressure (IOP) change,"normotensive rabbits; treated eye, 0.1 μg, 3 h",0.6 ± 0.6 mmHg
same,Intraocular pressure (IOP) change,"normotensive rabbits; treated eye, 0.1 μg, 4 h",1.8 ± 0.5 mmHg
same,Intraocular pressure (IOP) change,"normotensive rabbits; treated eye, 0.1 μg, 5 h",2.0 ± 0.9 mmHg
same,Intraocular pressure (IOP) change,"normotensive rabbits; treated eye, 1.0 μg, 0 h",0.0 ± 0.0 mmHg
same,Intraocular pressure (IOP) change,"normotensive rabbits; treated eye, 1.0 μg, 0.5 h",−1.0 ± 0.3 mmHg
same,Intraocular pressure (IOP) change,"normotensive rabbits; treated eye, 1.0 μg, 1 h",−3.6 ± 0.7 mmHg
same,Intraocular pressure (IOP) change,"normotensive rabbits; treated eye, 1.0 μg, 2 h",−4.6 ± 1.4 mmHg
same,Intraocular pressure (IOP) change,"normotensive rabbits; treated eye, 1.0 μg, 3 h",−4.3 ± 1.1 mmHg
same,Intraocular pressure (IOP) change,"normotensive rabbits; treated eye, 1.0 μg, 4 h",−2.0 ± 1.4 mmHg
same,Intraocular pressure (IOP) change,"normotensive rabbits; treated eye, 1.0 μg, 5 h",−0.9 ± 1.8 mmHg
same,Intraocular pressure (IOP) change,"normotensive rabbits; treated eye, 2.5 μg, 0 h",0.0 ± 0.0 mmHg
same,Intraocular pressure (IOP) change,"normotensive rabbits; treated eye, 2.5 μg, 0.5 h",0.6 ± 0.9 mmHg
same,Intraocular pressure (IOP) change,"normotensive rabbits; treated eye, 2.5 μg, 1 h",−2.9 ± 1.3 mmHg
same,Intraocular pressure (IOP) change,"normotensive rabbits; treated eye, 2.5 μg, 2 h",−3.3 ± 1.8 mmHg
same,Intraocular pressure (IOP) change,"normotensive rabbits; treated eye, 2.5 μg, 3 h",−1.6 ± 1.7 mmHg
same,Intraocular pressure (IOP) change,"normotensive rabbits; treated eye, 2.5 μg, 4 h",1.0 ± 2.2 mmHg
same,Intraocular pressure (IOP) change,"normotensive rabbits; treated eye, 2.5 μg, 5 h",1.3 ± 1.9 mmHg
same,Intraocular pressure (IOP) change,"normotensive rabbits; treated eye, 3.4 μg (equimolar to 2.5 μg of MPV-2426), 0 h",0.0 ± 0.0 mmHg
same,Intraocular pressure (IOP) change,"normotensive rabbits; treated eye, 3.4 μg (equimolar to 2.5 μg of MPV-2426), 0.5 h",−0.9 ± 0.9 mmHg
same,Intraocular pressure (IOP) change,"normotensive rabbits; treated eye, 3.4 μg (equimolar to 2.5 μg of MPV-2426), 1 h",−2.9 ± 0.5 mmHg
same,Intraocular pressure (IOP) change,"normotensive rabbits; treated eye, 3.4 μg (equimolar to 2.5 μg of MPV-2426), 2 h",−6.5 ± 1.1 mmHg
same,Intraocular pressure (IOP) change,"normotensive rabbits; treated eye, 3.4 μg (equimolar to 2.5 μg of MPV-2426), 3 h",−5.2 ± 1.7 mmHg
same,Intraocular pressure (IOP) change,"normotensive rabbits; treated eye, 3.4 μg (equimolar to 2.5 μg of MPV-2426), 4 h",−3.2 ± 0.9 mmHg
same,Intraocular pressure (IOP) change,"normotensive rabbits; treated eye, 3.4 μg (equimolar to 2.5 μg of MPV-2426), 5 h",−1.4 ± 0.7 mmHg
same,IOP changes in the untreated eyes,normotensive rabbits; untreated (contralateral) eyes,Less significant changes
same,Intraocular pressure (IOP) change,"normotensive rabbits; untreated eye, 0.1 μg, 0 h",0.0 ± 0.0 mmHg
same,Intraocular pressure (IOP) change,"normotensive rabbits; untreated eye, 0.1 μg, 0.5 h",1.4 ± 0.1 mmHg
same,Intraocular pressure (IOP) change,"normotensive rabbits; untreated eye, 0.1 μg, 1 h",0.9 ± 0.5 mmHg
same,Intraocular pressure (IOP) change,"normotensive rabbits; untreated eye, 0.1 μg, 2 h",1.3 ± 0.2 mmHg
same,Intraocular pressure (IOP) change,"normotensive rabbits; untreated eye, 0.1 μg, 3 h",1.3 ± 0.7 mmHg
same,Intraocular pressure (IOP) change,"normotensive rabbits; untreated eye, 0.1 μg, 4 h",1.0 ± 0.9 mmHg
same,Intraocular pressure (IOP) change,"normotensive rabbits; untreated eye, 0.1 μg, 5 h",2.4 ± 1.3 mmHg
same,Intraocular pressure (IOP) change,"normotensive rabbits; untreated eye, 1.0 μg, 0 h",0.0 ± 0.0 mmHg
same,Intraocular pressure (IOP) change,"normotensive rabbits; untreated eye, 1.0 μg, 0.5 h",0.0 ± 1.4 mmHg
same,Intraocular pressure (IOP) change,"normotensive rabbits; untreated eye, 1.0 μg, 1 h",−2.1 ± 1.2 mmHg
same,Intraocular pressure (IOP) change,"normotensive rabbits; untreated eye, 1.0 μg, 2 h",−2.0 ± 1.8 mmHg
same,Intraocular pressure (IOP) change,"normotensive rabbits; untreated eye, 1.0 μg, 3 h",−0.9 ± 2.4 mmHg
same,Intraocular pressure (IOP) change,"normotensive rabbits; untreated eye, 1.0 μg, 4 h",−1.4 ± 0.7 mmHg
same,Intraocular pressure (IOP) change,"normotensive rabbits; untreated eye, 1.0 μg, 5 h",−0.8 ± 2.1 mmHg
same,Intraocular pressure (IOP) change,"normotensive rabbits; untreated eye, 2.5 μg, 0 h",0.0 ± 0.0 mmHg
same,Intraocular pressure (IOP) change,"normotensive rabbits; untreated eye, 2.5 μg, 0.5 h",−0.2 ± 0.9 mmHg
same,Intraocular pressure (IOP) change,"normotensive rabbits; untreated eye, 2.5 μg, 1 h",−0.6 ± 0.7 mmHg
same,Intraocular pressure (IOP) change,"normotensive rabbits; untreated eye, 2.5 μg, 2 h",0.0 ± 1.5 mmHg
same,Intraocular pressure (IOP) change,"normotensive rabbits; untreated eye, 2.5 μg, 3 h",0.1 ± 1.0 mmHg
same,Intraocular pressure (IOP) change,"normotensive rabbits; untreated eye, 2.5 μg, 4 h",1.0 ± 1.8 mmHg
same,Intraocular pressure (IOP) change,"normotensive rabbits; untreated eye, 2.5 μg, 5 h",0.3 ± 1.6 mmHg
same,Intraocular pressure (IOP) change,"normotensive rabbits; untreated eye, 3.4 μg (equimolar to 2.5 μg of MPV-2426), 0 h",0.0 ± 0.0 mmHg
same,Intraocular pressure (IOP) change,"normotensive rabbits; untreated eye, 3.4 μg (equimolar to 2.5 μg of MPV-2426), 0.5 h",0.4 ± 0.7 mmHg
same,Intraocular pressure (IOP) change,"normotensive rabbits; untreated eye, 3.4 μg (equimolar to 2.5 μg of MPV-2426), 1 h",−2.7 ± 0.8 mmHg
same,Intraocular pressure (IOP) change,"normotensive rabbits; untreated eye, 3.4 μg (equimolar to 2.5 μg of MPV-2426), 2 h",−1.3 ± 0.6 mmHg
same,Intraocular pressure (IOP) change,"normotensive rabbits; untreated eye, 3.4 μg (equimolar to 2.5 μg of MPV-2426), 3 h",−2.8 ± 0.8 mmHg
same,Intraocular pressure (IOP) change,"normotensive rabbits; untreated eye, 3.4 μg (equimolar to 2.5 μg of MPV-2426), 4 h",−0.8 ± 0.7 mmHg
same,Intraocular pressure (IOP) change,"normotensive rabbits; untreated eye, 3.4 μg (equimolar to 2.5 μg of MPV-2426), 5 h",−0.8 ± 1.0 mmHg
same,melting point,,176 to 177 °C
same,half-life,serum esterases,30 min
